Results reported in patent US20200025762A1, “NON-TARGET SITE RESISTANCE” (UNIVERSITY OF NEWCASTLE UPON TYNE, priority 2017, published 2020).

Experiments:
[1] = tested on: Pendimethalin population (ROTH PEND 14) of black-grass; experiment: Cross resistance test of the Pendimethalin selected line; format: in vivo, Alopecurus myosuroides; conditions: full or ¾ field rate; FIG. 18; not due to TSR (PCR of ACCases)
Excerpt: (§1) However, given that the two populations have no known relationship to the HS population, some of these differences could have arisen due to background genetic variation not linked to herbicide resistance. To test this, the inventors extended the proteomic comparison to two additional populations originating from the HS Rothamsted population that had undergone 5-7 years of experimentally controlled selection under a single herbicide regime, either Fenoxaprop or Pendimethalin (Supplementary Methods S1). These herbicides were used because whereas resistance to fenoxaprop can arise through both TSR- and NTSR-based mechanisms (Cocker et al., 1999), evolved tolerance to pendimethalin in black-grass is most commonly associated with enhanced detoxification (James et al., 1995). The inventors then tested these populations for cross-resistance to other herbicides at either full or ¾ field rate (Supplementary Methods S2). Despite being selected under exposure to a single herbicidal mode of action (inhibition of microtubule assembly), the Pendimethalin population was also resistant against several herbicides with ACCase mode of action (fenoxaprop, clodinafop, cycloxidim), but not ALS or cell division MOA (FIG. 18). PCR of the respective ACCases in the selected population (Marshall et al., 2013), confirmed that resistance was not due to TSR-related mechanisms.
A black-grass population originating from Rothamsted Broadbalk experimental grounds (guaranteed herbicide free) was used as the standard Herbicide Susceptible (HS) population, collected in 2009. This was used as a standard control for two “real” NTSR populations originating from wheat field sites in Essex (Peldon) and Oxford and two experimental NTSR populations that had undergone directed selection to two types of herbicidal active ingredients (Fenoxaprop and Pendimethalin). Both experimental populations originated from the Rothamsted HS population in 2004. Further details on the selection regime to create the distinct Fenoxaprop and Pendimethalin resistant populations are provided in Supplementary Methods S1/S2. […]

[2] = tested on: Fenoxaprop population (ROTH FEN OUT) of black-grass; experiment: Cross resistance test of the Fenoxaprop selected line; format: in vivo, Alopecurus myosuroides; conditions: full or ¾ field rate; FIG. 18; no evidence of TSR
Excerpt: as §1, with “mechanisms. […]” for “mechanisms.”

| SMILES | herbicide resistance of the Pendimethalin population [1] | herbicide resistance of the population selected with fenoxaprop [2] |
| --- | --- | --- |
| C#CCOC(=O)[C@@H](C)Oc1ccc(Oc2ncc(Cl)cc2F)cc1 | resistant |  |
| CC(Oc1ccc(Oc2nc3ccc(Cl)cc3o2)cc1)C(=O)O (stereo not shown) [fenoxaprop] | resistant | only resistant toward the selecting herbicide |
| CCCC(=NOCC)C1=C(O)CC(C2CCCSC2)CC1=O (stereo not shown) [cycloxidim] | resistant |  |
